Laboratory results as given in ChEMBL document CHEMBL5143517, “Discovery and radiosensitization research of ursolic acid derivatives as SENP1 inhibitors” (Eur J Med Chem, 2022).

test: Cytotoxicity against human HeLa cells assessed as inhibition of cell growth incubated for 72 hrs by CCK-8 assay; type: toxicity, cell-based

SMILES | IC50 at 72 h
CNC(=O)CCNC(=O)[C@]12CC[C@@H](C)[C@H](C)[C@H]1C1=CC[C@@H]3[C@@]4(C)CC[C@H](OC(C)=O)C(C)(C)[C@@H]4CC[C@@]3(C)[C@]1(C)CC2 | > 20 µM
C[C@H]1[C@H](C)CC[C@]2(C(=O)OCC3CCN(C(=O)OC(C)(C)C)CC3)CC[C@]3(C)C(=CC[C@@H]4[C@@]5(C)CC[C@H](O)C(C)(C)[C@@H]5CC[C@]43C)[C@H]12 | > 20 µM
C[C@H]1[C@H](C)CC[C@]2(C(=O)OCCN3CCN(c4cccc(C(F)(F)F)c4)CC3)CC[C@]3(C)C(=CC[C@@H]4[C@@]5(C)CC[C@H](O)C(C)(C)[C@@H]5CC[C@]43C)[C@H]12 | > 20 µM
C[C@H]1[C@H](C)CC[C@]2(C(=O)OCC(=O)N(C)CCO)CC[C@]3(C)C(=CC[C@@H]4[C@@]5(C)CC[C@H](O)C(C)(C)[C@@H]5CC[C@]43C)[C@H]12 | > 20 µM
COC(=O)COC(=O)[C@]12CC[C@@H](C)[C@H](C)[C@H]1C1=CC[C@@H]3[C@@]4(C)CC[C@H](O)C(C)(C)[C@@H]4CC[C@@]3(C)[C@]1(C)CC2 [3BETA-HYDROXY-URS-12-EN-28-METHYL ACETOACETATE] | > 20 µM
COC(=O)[C@@H]1CCCN1C(=O)[C@]12CC[C@@H](C)[C@H](C)[C@H]1C1=CC[C@@H]3[C@@]4(C)CC[C@H](OC(C)=O)C(C)(C)[C@@H]4CC[C@@]3(C)[C@]1(C)CC2 | > 20 µM
COC(=O)[C@]12CC[C@@H](C)[C@H](C)[C@H]1C1=CC[C@@H]3[C@@]4(C)CC[C@H](O)C(C)(C)[C@@H]4CC[C@@]3(C)[C@]1(C)CC2 [METHYL URSOLATE] | > 20 µM
C[C@H]1[C@H](C)CC[C@]2(C(=O)OCCN3CCNCC3)CC[C@]3(C)C(=CC[C@@H]4[C@@]5(C)CC[C@H](O)C(C)(C)[C@@H]5CC[C@]43C)[C@H]12 | > 20 µM
COC(=O)CN(C)C(=O)[C@]12CC[C@@H](C)[C@H](C)[C@H]1C1=CC[C@@H]3[C@@]4(C)CC[C@H](OC(C)=O)C(C)(C)[C@@H]4CC[C@@]3(C)[C@]1(C)CC2 | > 20 µM
C[C@H]1[C@H](C)CC[C@]2(C(=O)OCCBr)CC[C@]3(C)C(=CC[C@@H]4[C@@]5(C)CC[C@H](O)C(C)(C)[C@@H]5CC[C@]43C)[C@H]12 | > 20 µM
C[C@H]1[C@H](C)CC[C@]2(C(=O)NCC(=O)NCCO)CC[C@]3(C)C(=CC[C@@H]4[C@@]5(C)CC[C@H](O)C(C)(C)[C@@H]5CC[C@]43C)[C@H]12 | > 20 µM
CNC(=O)CN(C)C(=O)[C@]12CC[C@@H](C)[C@H](C)[C@H]1C1=CC[C@@H]3[C@@]4(C)CC[C@H](O)C(C)(C)[C@@H]4CC[C@@]3(C)[C@]1(C)CC2 | > 20 µM
C[C@H]1[C@H](C)CC[C@]2(C(=O)OCCO)CC[C@]3(C)C(=CC[C@@H]4[C@@]5(C)CC[C@H](O)C(C)(C)[C@@H]5CC[C@]43C)[C@H]12 | > 20 µM
C[C@H]1[C@H](C)CC[C@]2(C(=O)OCCCCBr)CC[C@]3(C)C(=CC[C@@H]4[C@@]5(C)CC[C@H](O)C(C)(C)[C@@H]5CC[C@]43C)[C@H]12 [BROMOBUTYL-3BETA-HYDROXY-URS-12-EN-28-OATE] | > 20 µM
C[C@H]1[C@H](C)CC[C@]2(C(=O)OCc3ccccc3)CC[C@]3(C)C(=CC[C@@H]4[C@@]5(C)CC[C@H](O)C(C)(C)[C@@H]5CC[C@]43C)[C@H]12 | > 20 µM
CNC(=O)COC(=O)[C@]12CC[C@@H](C)[C@H](C)[C@H]1C1=CC[C@@H]3[C@@]4(C)CC[C@H](O)C(C)(C)[C@@H]4CC[C@@]3(C)[C@]1(C)CC2 | > 20 µM
C[C@H]1[C@H](C)CC[C@]2(C(=O)NCC(=O)N(CCO)CCO)CC[C@]3(C)C(=CC[C@@H]4[C@@]5(C)CC[C@H](O)C(C)(C)[C@@H]5CC[C@]43C)[C@H]12 | > 20 µM
C[C@H]1[C@H](C)CC[C@]2(C(N)=O)CC[C@]3(C)C(=CC[C@@H]4[C@@]5(C)CC[C@H](O)C(C)(C)[C@@H]5CC[C@]43C)[C@H]12 | > 20 µM
C[C@H]1[C@H](C)CC[C@]2(C(=O)N3CCC[C@H]3C(=O)O)CC[C@]3(C)C(=CC[C@@H]4[C@@]5(C)CC[C@H](O)C(C)(C)[C@@H]5CC[C@]43C)[C@H]12 | > 20 µM
C[C@H]1[C@H](C)CC[C@]2(C(=O)NCC(=O)O)CC[C@]3(C)C(=CC[C@@H]4[C@@]5(C)CC[C@H](O)C(C)(C)[C@@H]5CC[C@]43C)[C@H]12 | > 20 µM
CNC(=O)CCNC(=O)[C@]12CC[C@@H](C)[C@H](C)[C@H]1C1=CC[C@@H]3[C@@]4(C)CC[C@H](O)C(C)(C)[C@@H]4CC[C@@]3(C)[C@]1(C)CC2 | > 20 µM
COC(=O)[C@]12CC[C@@H](C)[C@H](C)[C@H]1C1=CC[C@@H]3[C@@]4(C)CC[C@H](OC(C)=O)C(C)(C)[C@@H]4CC[C@@]3(C)[C@]1(C)CC2 | > 20 µM
C[C@H]1[C@H](C)CC[C@]2(C(=O)OCCNC(=O)OC(C)(C)C)CC[C@]3(C)C(=CC[C@@H]4[C@@]5(C)CC[C@H](O)C(C)(C)[C@@H]5CC[C@]43C)[C@H]12 | > 20 µM

SMILES | IC50 at 72 h
C[C@H]1[C@H](C)CC[C@]2(C(=O)NCC(=O)N(C)CCO)CC[C@]3(C)C(=CC[C@@H]4[C@@]5(C)CC[C@H](O)C(C)(C)[C@@H]5CC[C@]43C)[C@H]12 | > 20 µM
C[C@H]1[C@H](C)CC[C@]2(C(=O)N[C@@H](C)c3ccccc3)CC[C@]3(C)C(=CC[C@@H]4[C@@]5(C)CC[C@H](O)C(C)(C)[C@@H]5CC[C@]43C)[C@H]12 | > 20 µM
CC(=O)O[C@H]1CC[C@]2(C)[C@H]3CC=C4[C@@H]5[C@@H](C)[C@H](C)CC[C@]5(C(=O)O)CC[C@@]4(C)[C@]3(C)CC[C@H]2C1(C)C [O-ACETYLURSOLIC ACID] | > 20 µM
C[C@H]1[C@H](C)CC[C@]2(C(=O)OCC(=O)NCCO)CC[C@]3(C)C(=CC[C@@H]4[C@@]5(C)CC[C@H](O)C(C)(C)[C@@H]5CC[C@]43C)[C@H]12 | > 20 µM
C[C@H]1[C@H](C)CC[C@]2(C(=O)OCCN3CCN(CCO)CC3)CC[C@]3(C)C(=CC[C@@H]4[C@@]5(C)CC[C@H](O)C(C)(C)[C@@H]5CC[C@]43C)[C@H]12 | > 20 µM
CC(=O)O[C@H]1CC[C@]2(C)[C@H]3CC=C4[C@@H]5[C@@H](C)[C@H](C)CC[C@]5(C(=O)N[C@@H](C)c5ccccc5)CC[C@@]4(C)[C@]3(C)CC[C@H]2C1(C)C | > 20 µM
CC(=O)O[C@H]1CC[C@]2(C)[C@H]3CC=C4[C@@H]5[C@@H](C)[C@H](C)CC[C@]5(C(=O)NCC(=O)O)CC[C@@]4(C)[C@]3(C)CC[C@H]2C1(C)C | > 20 µM
C[C@H]1[C@H](C)CC[C@]2(C(=O)OCCN3CCNC(=O)C3)CC[C@]3(C)C(=CC[C@@H]4[C@@]5(C)CC[C@H](O)C(C)(C)[C@@H]5CC[C@]43C)[C@H]12 | > 20 µM
C[C@H]1[C@H](C)CC[C@]2(C(=O)OCCN3CCCCC3)CC[C@]3(C)C(=CC[C@@H]4[C@@]5(C)CC[C@H](O)C(C)(C)[C@@H]5CC[C@]43C)[C@H]12 | > 20 µM
C[C@H]1[C@H](C)CC[C@]2(C(=O)NCC(N)=O)CC[C@]3(C)C(=CC[C@@H]4[C@@]5(C)CC[C@H](O)C(C)(C)[C@@H]5CC[C@]43C)[C@H]12 | > 20 µM
CC(=O)O[C@H]1CC[C@]2(C)[C@H]3CC=C4[C@@H]5[C@@H](C)[C@H](C)CC[C@]5(C(=O)NCC(N)=O)CC[C@@]4(C)[C@]3(C)CC[C@H]2C1(C)C | > 20 µM
COC(=O)CNC(=O)[C@]12CC[C@@H](C)[C@H](C)[C@H]1C1=CC[C@@H]3[C@@]4(C)CC[C@H](OC(C)=O)C(C)(C)[C@@H]4CC[C@@]3(C)[C@]1(C)CC2 | > 20 µM
C[C@H]1[C@H](C)CC[C@]2(C(=O)NCCC(=O)O)CC[C@]3(C)C(=CC[C@@H]4[C@@]5(C)CC[C@H](O)C(C)(C)[C@@H]5CC[C@]43C)[C@H]12 | > 20 µM
CNC(=O)CNC(=O)[C@]12CC[C@@H](C)[C@H](C)[C@H]1C1=CC[C@@H]3[C@@]4(C)CC[C@H](OC(C)=O)C(C)(C)[C@@H]4CC[C@@]3(C)[C@]1(C)CC2 | > 20 µM
C[C@H]1[C@H](C)CC[C@]2(C(=O)OCCN3CCOCC3)CC[C@]3(C)C(=CC[C@@H]4[C@@]5(C)CC[C@H](O)C(C)(C)[C@@H]5CC[C@]43C)[C@H]12 | > 20 µM
C[C@H]1[C@H](C)CC[C@]2(C(=O)OCCCCN3CCNCC3)CC[C@]3(C)C(=CC[C@@H]4[C@@]5(C)CC[C@H](O)C(C)(C)[C@@H]5CC[C@]43C)[C@H]12 | 5.7 µM
C[C@H]1[C@H](C)CC[C@]2(C(=O)OCCN3CCN(C)CC3)CC[C@]3(C)C(=CC[C@@H]4[C@@]5(C)CC[C@H](O)C(C)(C)[C@@H]5CC[C@]43C)[C@H]12 | > 20 µM
C[C@H]1[C@H](C)CC[C@]2(C(=O)OCCCCN3CCOCC3)CC[C@]3(C)C(=CC[C@@H]4[C@@]5(C)CC[C@H](O)C(C)(C)[C@@H]5CC[C@]43C)[C@H]12 | > 20 µM
COC(=O)CCNC(=O)[C@]12CC[C@@H](C)[C@H](C)[C@H]1C1=CC[C@@H]3[C@@]4(C)CC[C@H](OC(C)=O)C(C)(C)[C@@H]4CC[C@@]3(C)[C@]1(C)CC2 | > 20 µM
CC(=O)O[C@H]1CC[C@]2(C)[C@H]3CC=C4[C@@H]5[C@@H](C)[C@H](C)CC[C@]5(C(N)=O)CC[C@@]4(C)[C@]3(C)CC[C@H]2C1(C)C | > 20 µM
C[C@H]1[C@H](C)CC[C@]2(C(=O)NCCBr)CC[C@]3(C)C(=CC[C@@H]4[C@@]5(C)CC[C@H](O)C(C)(C)[C@@H]5CC[C@]43C)[C@H]12 | > 20 µM
COC(=O)[C@]12CC[C@@H](C)[C@H](C)[C@H]1C1=CC[C@@H]3[C@@]4(C)CC[C@H](OC=O)C(C)(C)[C@@H]4CC[C@@]3(C)[C@]1(C)CC2 | > 20 µM
C[C@H]1[C@H](C)CC[C@]2(C(=O)OCC(=O)OC(C)(C)C)CC[C@]3(C)C(=CC[C@@H]4[C@@]5(C)CC[C@H](O)C(C)(C)[C@@H]5CC[C@]43C)[C@H]12 | > 20 µM
